The source made the active and inactive calls.
Key:
Streptococcus = test: GAS UMAA2166 growth inhibition – luminescence, BacTiterGlo, counter-screen for streptokinase expression inhibitor project, dose response (AID 1915); assay type: functional, organism-based;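 also: potency for reduction of bacterial viability or growth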
[1] = Luminescence Cell-Based Dose Retest to Confirm Inhibitors of Cancer Stem Cells. [Related pubchem assays (depositor defined):AID2717, AID2721]; assay type: functional; conditions: Homo sapiens
[2] = system: Streptococcus sp. 'group A'; test: Streptococcus pyogenes SK(-)GAS viability under kanamycin – luminescence, BacTiterGlo, confirmation, counter-screen for streptokinase expression inhibitor project, dose response (AID 1900); assay type: functional, organism-based
Streptokinase A = target: T1, Streptokinase A (Streptococcus pyogenes serotype M1, UniProt P10520); test: viability-normalized secreted streptokinase activity reduction – plasminogen activation absorbance, OD405, dose response (AID 1914); assay type: functional, Streptococcus pyogenes M1 GAS;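 also: secreted streptokinase activity via plasminogen activation per viability signal from cell pellet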
T1 sequence (P10520 whole entry): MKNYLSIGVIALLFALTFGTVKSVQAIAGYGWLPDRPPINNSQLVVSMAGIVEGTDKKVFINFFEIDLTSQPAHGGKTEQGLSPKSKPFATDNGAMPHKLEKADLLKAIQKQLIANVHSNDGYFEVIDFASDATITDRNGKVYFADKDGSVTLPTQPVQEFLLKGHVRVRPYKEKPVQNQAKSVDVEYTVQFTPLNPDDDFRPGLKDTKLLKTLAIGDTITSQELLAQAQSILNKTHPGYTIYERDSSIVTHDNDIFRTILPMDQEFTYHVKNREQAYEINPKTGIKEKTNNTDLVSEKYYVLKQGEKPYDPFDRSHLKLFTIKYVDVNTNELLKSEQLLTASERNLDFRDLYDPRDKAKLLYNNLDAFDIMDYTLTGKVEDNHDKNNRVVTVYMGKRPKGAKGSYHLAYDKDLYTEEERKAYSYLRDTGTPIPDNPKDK

Trypsin = Trypsin (Sus scrofa, UniProt P00761); test: trypsin protease activity blockade – biochemical, quenched peptide fluorescence, cherry-pick, selectivity assay for Rce1 protease inhibitor project, dose response (AID 488789)
CAAX prenyl protease 1 = CAAX prenyl protease 1 (Saccharomyces cerevisiae S288c, UniProt P47154); test: yeast CAAX protease Ste24 inhibition – biochemical, S. cerevisiae, plate reader, cherry-pick, dose response (AID 488815)
CAAX prenyl protease 2 [3] = target: CAAX prenyl protease 2 (Homo sapiens, UniProt Q9Y256); test: inhibition of Ras-converting CAAX protease Rce1 – biochemical, yeast membranes, quenched-peptide fluorescence, cherry-pick, dose response (AID 588849)
CAAX prenyl protease 2 [4] = target: T2, CAAX prenyl protease 2 (Saccharomyces cerevisiae S288c, UniProt Q03530); assay type: biochemical
T2 sequence (Q03530 whole entry): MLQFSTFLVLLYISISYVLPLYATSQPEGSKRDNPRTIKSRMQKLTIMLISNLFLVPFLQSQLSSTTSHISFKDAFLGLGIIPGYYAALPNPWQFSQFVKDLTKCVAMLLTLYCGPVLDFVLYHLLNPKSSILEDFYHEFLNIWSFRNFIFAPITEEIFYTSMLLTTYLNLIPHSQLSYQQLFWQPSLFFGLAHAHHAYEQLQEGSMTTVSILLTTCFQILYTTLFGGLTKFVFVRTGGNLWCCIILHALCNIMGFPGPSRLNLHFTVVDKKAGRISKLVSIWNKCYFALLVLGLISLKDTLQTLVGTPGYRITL

[5] = target: T3, Oxysterols receptor LXR-beta (Homo sapiens, UniProt P55055); test: LXR agonists, Gal4 luciferase reporter, dose response, counter-screen for ssDAF-12 agonist project, cell-based, luminescence, HEK293, S. stercoralis campaign (AID 720737); assay type: functional; conditions: read-out: IC50 (the source's name)
T3 sequence (P55055 whole entry): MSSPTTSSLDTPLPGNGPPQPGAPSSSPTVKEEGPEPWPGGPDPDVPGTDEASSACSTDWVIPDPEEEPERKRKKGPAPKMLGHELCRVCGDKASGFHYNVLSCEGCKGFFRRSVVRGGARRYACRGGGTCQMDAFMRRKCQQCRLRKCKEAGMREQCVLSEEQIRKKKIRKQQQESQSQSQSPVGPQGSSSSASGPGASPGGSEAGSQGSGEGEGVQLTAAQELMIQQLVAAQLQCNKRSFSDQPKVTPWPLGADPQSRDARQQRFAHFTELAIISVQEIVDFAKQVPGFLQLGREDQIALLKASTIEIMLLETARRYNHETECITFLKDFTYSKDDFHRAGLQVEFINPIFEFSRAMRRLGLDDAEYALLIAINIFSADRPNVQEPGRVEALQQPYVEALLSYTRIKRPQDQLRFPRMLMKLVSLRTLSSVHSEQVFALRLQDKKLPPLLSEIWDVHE

[6] = target: Induced myeloid leukemia cell differentiation protein Mcl-1 (Homo sapiens, UniProt Q07820); assay type: functional
[7] = target: T4, Mannose-6-phosphate isomerase (Homo sapiens, UniProt P34949); test: MPI enzyme activity inhibition – biochemical, fluorescence intensity, coupled assay, primary screen (AID 1209)
T4 sequence (P34949 whole entry): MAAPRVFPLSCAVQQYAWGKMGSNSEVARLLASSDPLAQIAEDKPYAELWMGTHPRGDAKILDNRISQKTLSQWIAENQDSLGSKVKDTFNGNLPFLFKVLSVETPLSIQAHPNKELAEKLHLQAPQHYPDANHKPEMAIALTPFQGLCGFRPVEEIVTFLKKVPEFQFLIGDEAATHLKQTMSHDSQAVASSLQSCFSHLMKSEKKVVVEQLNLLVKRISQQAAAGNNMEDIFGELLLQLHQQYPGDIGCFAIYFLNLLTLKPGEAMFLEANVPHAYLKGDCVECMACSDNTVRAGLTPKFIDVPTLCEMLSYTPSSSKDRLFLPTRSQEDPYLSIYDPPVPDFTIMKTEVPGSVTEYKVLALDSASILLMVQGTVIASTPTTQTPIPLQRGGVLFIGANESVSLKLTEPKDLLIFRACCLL

cells [8] = test: cells
[9] = target: Sentrin-specific protease 7 (Homo sapiens, UniProt Q9BQF6); assay type: functional;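 also: Luminescence-based dose-response confirmation of ultra-high-throughput screening hits, measuring inhibition of SENP7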
[10] = target: Sentrin-specific protease 6 (Homo sapiens, UniProt Q9GZR1); assay type: functional;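 also: Luminescence-based dose-response confirmatory assay of SENP6 inhibition, following up an ultra-high-throughput screen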
[11] = Luminescence-based cell-based high throughput dose response assay to identify activators of the DAF-12 from the parasite S. stercoralis (ssDAF-12).; assay type: functional
[12] = target: T3, Oxysterols receptor LXR-beta; assay type: functional, cell-based
[13] = target: T5, Sentrin-specific protease 8 (Homo sapiens, UniProt Q96LD8); assay type: functional;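 also: luminescence read-out of SENP8 inhibition, dose-response confirmation following an ultra-high-throughput screen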
T5 sequence (Q96LD8 whole entry): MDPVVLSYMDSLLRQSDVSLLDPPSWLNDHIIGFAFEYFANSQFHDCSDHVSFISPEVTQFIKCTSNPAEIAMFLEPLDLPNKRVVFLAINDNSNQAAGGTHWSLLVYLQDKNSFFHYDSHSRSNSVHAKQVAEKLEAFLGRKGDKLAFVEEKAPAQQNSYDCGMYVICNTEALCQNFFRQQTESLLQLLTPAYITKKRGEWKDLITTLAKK

Caspase-3 = Caspase-3 (Homo sapiens, UniProt P42574); assay type: functional;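 also: Dose-response selectivity test against caspase-3 for candidate inhibitors of sentrin-specific proteases (SENPs)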
[14] = target: T4, Mannose-6-phosphate isomerase; test: MPI inhibition at elevated mannose 6-phosphate – biochemical, fluorescence intensity, high mannose 6-phosphate, primary screen (AID 1220)
BJ [15] = test: BJ-TERT fibroblast viability loss – cell-based, RAS-independent, luminescence, dose response (AID 1933); assay type: functional; conditions: Homo sapiens
BJ [16] = test: BJ-TERT-LT-ST fibroblast viability loss – cell-based, RAS-independent, luminescence, dose response (AID 1935); assay type: functional; conditions: Homo sapiens;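 also: BJ fibroblasts immortalized with TERT plus LT and ST oncogenes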
BJ [17] = test: growth inhibition of engineered Ras-driven BJ cells – cell-based, alamar blue fluorescence, cherrypicked samples, dose response (AID 2631); assay type: functional; conditions: Homo sapiens;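 also: confirmatory dose-response assay in RAS-dependent BJ fibroblasts engineered with TERT, LT and ST, with cytotoxicity read by fluorescence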
[18] = DRD fibroblast viability loss – cell-based, non-viral oncogenic, luminescence, dose response (AID 1934); assay type: functional; conditions: Homo sapiens
BJ [19] = test: cells; assay type: functional, cell-based; conditions: Homo sapiens
[20] = target: Serine/threonine-protein phosphatase (Candida dubliniensis (strain CD36 / CBS 7987 / NCPF 3949 / NRRLY-17841) (Yeast), UniProt B9W6M3); test: blockers of CaCl2-induced CDRE-lacZ signaling – S. cerevisiae, luminescence, secondary, dose response (AID 2388); assay type: functional, cell-based;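 also: yeast reporter cells carrying a calcineurin-responsive lacZ construct stimulated with calcium chloride; luminescent beta-galactosidase reporter signal in whole cells rather than isolated phosphatase activity; potency for inhibition where a drop in reporter signal means calcineurin blockade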
[21] = target: ATP-dependent molecular chaperone HSP82 (Candida albicans (strain WO-1) (Yeast), UniProt C4YTQ8); test: steroid-induced GRE reporter decrease in yeast – S. cerevisiae, luminescence, Hsp90 inhibitor project, dose response (AID 2400); assay type: functional, cell-based;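 also: beta-galactosidase luminescence from glucocorticoid response element reporter as proxy for Hsp90 function; inhibitor potency where signal loss means Hsp90 inhibition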
[22] = fluconazole-exposed Candida albicans growth modulators – fluorescence, retest, confirmation (AID 2467); assay type: functional, cell-based
[23] = microbe, parasite or virus in culture; assay type: functional; conditions: Mycobacterium tuberculosis
[24] = NIH-3T3 fibroblast cytotoxicity, dose response, cytotoxicity control, cell-based, fluorescence, Alamar Blue, secondary assay (AID 2327); assay type: functional;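 also: NIH-3T3 mouse fibroblasts cultured with fluconazole at 8 µg/mL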
Vero = test: cells; assay type: functional; conditions: Chlorocebus sabaeus
Fatty acid synthase [25] = target: T6, Fatty acid synthase (Homo sapiens, UniProt P49327); test: inhibition of human FAS-TE enzyme activity – biochemical, kinetic fluorescence intensity, dose response (AID 624326); assay type: functional;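 also: rate of fluorescence rise from hydrolysis of a fluorogenic O-methyl fluorescein ester substrate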
Fatty acid synthase [26] = target: T6, Fatty acid synthase; test: inhibition of human FAS-TE enzyme activity – biochemical, endpoint fluorescence intensity, uHTS hits, dose response (AID 624327); assay type: functional;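 also: fluorescence from hydrolysis of an O-methyl fluorescein acyl ester substrate by the enzyme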
[27] = target: Melanin-concentrating hormone receptor 1 (Homo sapiens, UniProt Q99705); test: Late-stage fluorescence-based counterscreen for antagonists of the G-protein coupled receptor 7 (GPR7): cell-based dose response assay to identify antagonists of the melanin-concentrating hormone receptor 1 (MCHR1) Set 5.; assay type: functional
[28] = target: ALK tyrosine kinase receptor (Homo sapiens, UniProt Q9UM73); assay type: functional;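 also: ALK tested as one member of a kinase panel screen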
[29] = target: Cyclin-dependent kinase 19 (Homo sapiens, UniProt Q9BWU1); test: Navigating the Kinome. Panel member name: CDC2L6; assay type: functional
[30] = target: Protein disulfide-isomerase (Homo sapiens, UniProt P07237); test: inhibition of PDI-driven insulin aggregation – biochemical, turbidity, absorbance, cherry-picked samples, dose response (AID 602350); assay type: functional
[31] = HEK-293T viability loss after treatment – luminescence, T-cell screen hits, cytotoxicity control for TCR NF-kB inhibitor project, dose response (AID 489026); assay type: functional, cell-based;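 also: cells exposed to compound about 14 hours before the viability readout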
INS1 = test: INS-1E survival protection against cytokine death – cell-based, luminescence, retest, dose response (AID 449756); assay type: functional; conditions: Rattus norvegicus;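 also: cell death triggered by IL-1 beta plus TNF-alpha plus IFN-gamma mixture; protective hits raise ATP signal compared with cytokine alone wells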
cells [32] = assay type: functional, cell-based
cells [33] = assay type: functional, cell-based; remark: listed apart in the source
Large T antigen = Large T antigen (Simian virus 40, UniProt P03070); assay type: functional, Betapolyomavirus macacae;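 also: Confirmatory-stage PubChem screen for compounds that inhibit SV40 T antigen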
[34] = target: Dual specificity tyrosine-phosphorylation-regulated kinase 1A (Rattus norvegicus, UniProt Q63470); assay type: biochemical, Homo sapiens

Chain of Protein disulfide-isomerase (P07237 whole entry): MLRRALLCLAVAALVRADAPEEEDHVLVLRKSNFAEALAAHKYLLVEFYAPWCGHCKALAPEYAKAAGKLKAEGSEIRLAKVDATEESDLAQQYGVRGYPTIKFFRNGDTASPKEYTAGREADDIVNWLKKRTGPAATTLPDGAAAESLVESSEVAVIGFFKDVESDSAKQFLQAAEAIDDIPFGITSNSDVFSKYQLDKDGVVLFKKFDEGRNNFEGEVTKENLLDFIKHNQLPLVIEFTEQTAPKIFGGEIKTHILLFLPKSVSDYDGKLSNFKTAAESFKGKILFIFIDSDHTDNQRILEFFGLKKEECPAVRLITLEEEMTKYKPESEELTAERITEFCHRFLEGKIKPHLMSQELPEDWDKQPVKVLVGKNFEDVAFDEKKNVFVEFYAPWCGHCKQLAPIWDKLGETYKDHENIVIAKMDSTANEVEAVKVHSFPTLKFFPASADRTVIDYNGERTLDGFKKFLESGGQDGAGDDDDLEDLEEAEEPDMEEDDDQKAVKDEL
Chain of Caspase-3 (P42574 29-175 limits assumed): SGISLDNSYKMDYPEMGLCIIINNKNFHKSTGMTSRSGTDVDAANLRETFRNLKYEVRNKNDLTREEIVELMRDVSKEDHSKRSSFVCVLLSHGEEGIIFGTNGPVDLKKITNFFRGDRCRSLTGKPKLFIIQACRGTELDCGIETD
Chain of Caspase-3 (P42574 176-277 limits assumed): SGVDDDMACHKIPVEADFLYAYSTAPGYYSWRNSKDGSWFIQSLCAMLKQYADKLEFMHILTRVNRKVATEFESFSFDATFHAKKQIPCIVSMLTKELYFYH
Chain of Serine/threonine-protein phosphatase (B9W6M3 whole entry): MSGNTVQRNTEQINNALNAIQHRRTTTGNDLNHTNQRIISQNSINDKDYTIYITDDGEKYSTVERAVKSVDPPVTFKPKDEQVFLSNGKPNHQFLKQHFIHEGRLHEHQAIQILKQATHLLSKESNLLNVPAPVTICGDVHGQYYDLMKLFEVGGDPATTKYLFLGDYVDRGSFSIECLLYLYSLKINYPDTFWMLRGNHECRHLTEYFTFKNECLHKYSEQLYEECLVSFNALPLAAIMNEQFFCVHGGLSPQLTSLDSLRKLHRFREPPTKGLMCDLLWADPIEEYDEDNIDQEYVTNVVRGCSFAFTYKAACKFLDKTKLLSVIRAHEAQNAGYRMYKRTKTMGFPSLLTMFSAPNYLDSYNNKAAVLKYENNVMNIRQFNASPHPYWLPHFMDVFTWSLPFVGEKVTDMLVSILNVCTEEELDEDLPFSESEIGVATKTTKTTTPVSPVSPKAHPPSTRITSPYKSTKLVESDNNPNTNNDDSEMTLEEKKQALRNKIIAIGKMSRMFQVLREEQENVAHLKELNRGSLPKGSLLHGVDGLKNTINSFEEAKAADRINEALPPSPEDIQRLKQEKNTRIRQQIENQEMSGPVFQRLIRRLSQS
Chain of Sentrin-specific protease 7 (Q9BQF6 whole entry): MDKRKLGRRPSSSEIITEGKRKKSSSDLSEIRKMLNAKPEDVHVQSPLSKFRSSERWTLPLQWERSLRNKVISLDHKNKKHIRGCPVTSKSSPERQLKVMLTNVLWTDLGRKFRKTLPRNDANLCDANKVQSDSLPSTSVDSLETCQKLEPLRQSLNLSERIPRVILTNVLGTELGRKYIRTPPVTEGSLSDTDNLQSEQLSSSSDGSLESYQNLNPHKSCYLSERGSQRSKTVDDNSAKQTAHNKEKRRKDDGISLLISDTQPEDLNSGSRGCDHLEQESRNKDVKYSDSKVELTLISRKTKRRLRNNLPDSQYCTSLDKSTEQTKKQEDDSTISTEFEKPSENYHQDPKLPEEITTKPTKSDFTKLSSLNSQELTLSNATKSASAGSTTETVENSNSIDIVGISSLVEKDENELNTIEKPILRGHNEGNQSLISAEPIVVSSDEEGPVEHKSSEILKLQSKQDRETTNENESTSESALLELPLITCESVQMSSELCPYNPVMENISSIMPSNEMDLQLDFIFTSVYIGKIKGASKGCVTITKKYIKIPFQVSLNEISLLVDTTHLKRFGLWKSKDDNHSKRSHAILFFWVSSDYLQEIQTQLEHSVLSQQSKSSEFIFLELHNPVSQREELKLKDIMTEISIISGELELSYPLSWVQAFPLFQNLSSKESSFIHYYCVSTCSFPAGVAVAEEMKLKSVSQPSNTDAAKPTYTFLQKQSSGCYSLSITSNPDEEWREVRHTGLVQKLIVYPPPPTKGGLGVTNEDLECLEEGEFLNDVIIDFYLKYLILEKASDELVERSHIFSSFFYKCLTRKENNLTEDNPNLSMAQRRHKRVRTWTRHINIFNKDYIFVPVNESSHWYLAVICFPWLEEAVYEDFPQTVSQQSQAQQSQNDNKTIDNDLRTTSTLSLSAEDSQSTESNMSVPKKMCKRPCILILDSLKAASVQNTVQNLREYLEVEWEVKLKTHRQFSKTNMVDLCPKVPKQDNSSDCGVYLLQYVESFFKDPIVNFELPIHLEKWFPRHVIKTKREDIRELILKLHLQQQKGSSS
Chain of ATP-dependent molecular chaperone HSP82 (C4YTQ8 whole entry): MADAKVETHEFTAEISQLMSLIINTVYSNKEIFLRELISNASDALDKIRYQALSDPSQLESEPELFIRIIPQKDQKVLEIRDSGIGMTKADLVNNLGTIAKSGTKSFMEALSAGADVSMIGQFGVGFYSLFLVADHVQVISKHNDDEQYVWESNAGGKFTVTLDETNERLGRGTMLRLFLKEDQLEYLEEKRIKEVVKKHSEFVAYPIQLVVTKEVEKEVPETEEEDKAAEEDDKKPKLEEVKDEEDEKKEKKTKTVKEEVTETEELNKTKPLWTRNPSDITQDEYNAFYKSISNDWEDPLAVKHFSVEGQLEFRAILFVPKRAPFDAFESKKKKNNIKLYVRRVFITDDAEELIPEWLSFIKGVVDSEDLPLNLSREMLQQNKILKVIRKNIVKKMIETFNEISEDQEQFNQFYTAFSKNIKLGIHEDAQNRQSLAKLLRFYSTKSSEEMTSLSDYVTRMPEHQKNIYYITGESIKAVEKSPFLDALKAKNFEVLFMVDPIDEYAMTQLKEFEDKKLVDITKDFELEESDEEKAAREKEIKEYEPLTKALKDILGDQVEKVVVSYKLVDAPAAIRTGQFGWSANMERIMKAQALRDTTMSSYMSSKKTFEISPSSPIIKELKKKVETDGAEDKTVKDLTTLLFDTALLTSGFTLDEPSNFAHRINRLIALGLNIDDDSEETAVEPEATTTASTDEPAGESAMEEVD
Chain of Sentrin-specific protease 6 (Q9GZR1 whole entry): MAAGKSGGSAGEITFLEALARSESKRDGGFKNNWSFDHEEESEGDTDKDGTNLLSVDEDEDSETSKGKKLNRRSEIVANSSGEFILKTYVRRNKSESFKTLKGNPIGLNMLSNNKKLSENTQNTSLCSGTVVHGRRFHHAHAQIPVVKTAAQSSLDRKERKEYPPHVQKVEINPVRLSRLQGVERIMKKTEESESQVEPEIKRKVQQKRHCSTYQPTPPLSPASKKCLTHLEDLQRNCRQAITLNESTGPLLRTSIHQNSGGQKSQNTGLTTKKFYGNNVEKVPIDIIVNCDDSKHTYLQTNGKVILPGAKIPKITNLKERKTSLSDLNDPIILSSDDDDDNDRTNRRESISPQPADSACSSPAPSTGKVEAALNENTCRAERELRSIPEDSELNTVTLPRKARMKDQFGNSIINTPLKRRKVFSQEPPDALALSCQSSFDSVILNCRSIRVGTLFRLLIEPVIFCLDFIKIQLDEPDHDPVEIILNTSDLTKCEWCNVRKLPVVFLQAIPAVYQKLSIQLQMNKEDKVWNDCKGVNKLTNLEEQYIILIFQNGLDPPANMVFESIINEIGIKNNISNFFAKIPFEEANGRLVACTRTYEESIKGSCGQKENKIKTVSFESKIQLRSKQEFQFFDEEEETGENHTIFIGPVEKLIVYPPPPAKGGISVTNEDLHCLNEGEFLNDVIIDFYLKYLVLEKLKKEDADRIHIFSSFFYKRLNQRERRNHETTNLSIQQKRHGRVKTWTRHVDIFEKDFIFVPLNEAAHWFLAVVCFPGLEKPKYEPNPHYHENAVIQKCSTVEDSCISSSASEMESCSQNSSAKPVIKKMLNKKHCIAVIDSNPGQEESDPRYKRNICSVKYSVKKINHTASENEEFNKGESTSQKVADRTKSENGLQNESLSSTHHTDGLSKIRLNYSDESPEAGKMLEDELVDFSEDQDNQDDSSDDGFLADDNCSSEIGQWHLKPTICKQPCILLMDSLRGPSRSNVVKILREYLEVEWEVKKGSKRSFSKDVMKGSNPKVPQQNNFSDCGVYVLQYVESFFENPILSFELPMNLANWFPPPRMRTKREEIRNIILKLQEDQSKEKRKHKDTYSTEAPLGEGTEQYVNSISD
Chain of Trypsin (P00761 whole entry): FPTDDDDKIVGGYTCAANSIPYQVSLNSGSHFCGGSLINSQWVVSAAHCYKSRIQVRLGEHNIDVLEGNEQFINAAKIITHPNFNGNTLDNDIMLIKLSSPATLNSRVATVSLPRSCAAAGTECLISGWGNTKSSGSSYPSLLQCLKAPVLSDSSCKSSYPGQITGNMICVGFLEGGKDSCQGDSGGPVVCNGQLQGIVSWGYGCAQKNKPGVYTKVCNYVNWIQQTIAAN
Chain of CAAX prenyl protease 2 (Homo sapiens, UniProt Q9Y256) (Q9Y256 whole entry): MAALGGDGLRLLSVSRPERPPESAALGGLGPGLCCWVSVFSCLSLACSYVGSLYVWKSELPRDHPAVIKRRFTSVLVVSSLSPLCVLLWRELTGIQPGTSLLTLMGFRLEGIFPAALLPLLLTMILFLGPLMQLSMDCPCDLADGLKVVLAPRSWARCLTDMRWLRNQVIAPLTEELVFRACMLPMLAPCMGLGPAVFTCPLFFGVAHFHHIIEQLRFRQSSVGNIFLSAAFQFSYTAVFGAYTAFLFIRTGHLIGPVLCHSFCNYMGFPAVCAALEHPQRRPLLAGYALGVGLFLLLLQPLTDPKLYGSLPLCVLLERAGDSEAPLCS

SMILES: Cc1cccc(-c2oc3ccccc3c2C#CCCCCO)c1
- EC50 (Streptococcus): 7.64 µM (active)
- AC50 [1]: 6.31 µM (active)
- EC50 [2]: 4.57 µM (active)
- EC50 (Streptokinase A): > 150 µM (not active)
- AC50 (Trypsin): 3.53 µM (active)
- AC50 (CAAX prenyl protease 1): 3.56 µM (active)
- AC50 (CAAX prenyl protease 2 [3]): 12.9 µM (active)
- AC50 (CAAX prenyl protease 2 [4]): 7.08 µM (active)

SMILES: COc1ccc(-n2nc3cc(C)c(N)c(Br)c3n2)cc1
- EC50 [5]: > 67.5 µM (inactive)
- IC50 [6]: 2.53 µM (active)
- IC50 [7]: > 50 µM (not active)
- EC50 (cells [8]): > 67.5 µM (inactive)
- IC50 [9]: 5.86 µM (active)
- IC50 [10]: 13.7 µM (active)
- IC50 [11]: > 67.5 µM (inactive)
- EC50 [12]: > 67.5 µM (inactive)
- IC50 [13]: 41.3 µM (active)
- IC50 (Caspase-3): 35.5 µM (active)
- IC50 [14]: > 50 µM (not active)

SMILES: Cc1ccccc1Nc1nc(N)nc(CCl)n1
- EC50 (BJ [15]): 0.369 µM (inconclusive)
- EC50 (BJ [16]): > 150 µM (not active)
- EC50 (BJ [17]): 13.6 µM (active)
- EC50 [18]: 4.85 µM (active)
- EC50 (BJ [19]): 7.39 µM (inconclusive)

SMILES: Cc1c(Cl)ccc2c1NC(=O)[C@]21N[C@@H](Cc2ccccc2)[C@H]2C(=O)N(c3ccc(F)cc3)C(=O)[C@H]21
- EC50 [20]: > 180 µM (inactive)
- EC50 [21]: > 160 µM (inactive)
- EC50 [22]: 0.206 µM (active)
- CC50 [23]: 33 µM (active)
- EC50 [24]: > 150 µM (inactive)

SMILES: Cc1ccc(OCc2nc(-c3ccccc3)no2)cc1
- IC50 [9]: 11.6 µM (active)
- IC50 [10]: 47.1 µM (active)
- IC50 [13]: 69.9 µM (active)
- IC50 (Caspase-3): 42.1 µM (active)

SMILES: O=C(Nc1nnc(-c2ccc(F)cc2)o1)c1cccc([N+](=O)[O-])c1
- CC50 (Vero): 11.4 µM (active)
- EC50 [20]: > 180 µM (inactive)
- EC50 [21]: > 150 µM (inactive)
- EC50 [22]: 0.601 µM (active)
- EC50 [24]: > 150 µM (inactive)
- IC50 (Fatty acid synthase [25]): 9.09 µM (active)
- IC50 (Fatty acid synthase [26]): 11.9 µM (active)

SMILES: COc1ccc(Oc2c(Cl)cnn(C3c4ccccc4Oc4ccccc43)c2=O)cc1
- IC50 [27]: > 20 µM (inactive)

SMILES: Cn1cc(Nc2ncc(Br)c(Nc3ccccc3)n2)cn1
- Ki [28]: 1.26 µM (active)
- Ki [29]: 2 µM (active)

SMILES: C[C@H]1CN([C@@H](C)CO)C(=O)c2cccc(NS(C)(=O)=O)c2O[C@@H]1CN(C)Cc1ccc(Oc2ccccc2)cc1
- AC50 [30]: 19.5 µM (active)

SMILES: O=C(N/N=C\c1c(O)ccc2ccccc12)c1ccc(S(=O)(=O)N2CCCCC2)cc1
- IC50 [31]: > 80 µM (inactive)
- AC50 (INS1): < 0.195 µM (active)
- EC50 [22]: 0.178 µM (active)
- EC50 (BJ [17]): 0.558 µM (inconclusive)
- EC50 (cells [32]): > 350 µM (not active)
- EC50 (cells [33]): 5.71 µM (active)
- EC50 [24]: 3.29 µM (active)

SMILES: O=c1c(OC2OC(CO)C(O)C(O)C2O)c(-c2ccc(O)c(O)c2)oc2cc(O)cc(O)c12 (stereo not given)
- IC50 [7]: 21.3 µM (active)
- IC50 (Large T antigen): 2.06 µM (active)
- AC50 [30]: 8.92 µM (active)
- AC50 [34]: 7.72 µM (active)
